Here are results for 6 compounds from ChEMBL document CHEMBL5303573, “Mapping human microbiome drug metabolism by gut bacteria and their genes” (Nature, 2019).

Data set [1] is described as follows: The drug is tested on Collinsella intestinalis strain: DSM13280 for biotransformation. The drug concentrations were measured before and after a 12-h incubation by liquid-chromatography-coupled mass spectrometry (LC–MS). The settings on record: 2 µM.
A short description of data set [2]: The drug is tested on Bacteroides coprophilus strain: DSM18228 for biotransformation. The drug concentrations were measured before and after a 12-h incubation by liquid-chromatography-coupled mass spectrometry (LC–MS). The settings on record: 2 µM.
The nature of data set [3]: The drug is tested on Bacteroides dorei strain: DSM17855 for biotransformation. The drug concentrations were measured before and after a 12-h incubation by liquid-chromatography-coupled mass spectrometry (LC–MS). The settings on record: phocaeicola dorei, 2 µM.
Data set [4] is described as follows: The drug is tested on Bacteroides fragilis strain: ATCC43859 for biotransformation. The drug concentrations were measured before and after a 12-h incubation by liquid-chromatography-coupled mass spectrometry (LC–MS). The settings on record: 2 µM.
A short description of data set [5]: The drug is tested on Bacteroides ovatus strain: ATCC8483 for biotransformation. The drug concentrations were measured before and after a 12-h incubation by liquid-chromatography-coupled mass spectrometry (LC–MS). The settings on record: 2 µM.
A short description of data set [6]: The drug is tested on Bacteroides vulgatus strain: ATCC8482 for biotransformation. The drug concentrations were measured before and after a 12-h incubation by liquid-chromatography-coupled mass spectrometry (LC–MS). The settings on record: phocaeicola vulgatus, 2 µM.
The nature of data set [7]: The drug is tested on Parabacteroides merdae strain: ATCC43184 for biotransformation. The drug concentrations were measured before and after a 12-h incubation by liquid-chromatography-coupled mass spectrometry (LC–MS). The settings on record: 2 µM.
Data set [8] can be described thus: The drug is tested on Anaerococcus hydrogenalis strain: DSM7454 for biotransformation. The drug concentrations were measured before and after a 12-h incubation by liquid-chromatography-coupled mass spectrometry (LC–MS). The settings on record: 2 µM.
The nature of data set [9]: The drug is tested on Blautia hansenii strain: DSM20583 for biotransformation. The drug concentrations were measured before and after a 12-h incubation by liquid-chromatography-coupled mass spectrometry (LC–MS). The settings on record: 2 µM.
The nature of data set [10]: The drug is tested on Coprococcus comes strain: ATCC27758 for biotransformation. The drug concentrations were measured before and after a 12-h incubation by liquid-chromatography-coupled mass spectrometry (LC–MS). The data set is classed as ADME. Also on record: dose 2 uM, timepoint 0 vs 12 hours. The settings on record: 2 µM.
Data set [11] is described as follows: The drug is tested on Eubacterium hallii strain: DSM3353 for biotransformation. The drug concentrations were measured before and after a 12-h incubation by liquid-chromatography-coupled mass spectrometry (LC–MS). The settings on record: anaerobutyricum hallii, 2 µM.
Data set [12] can be described thus: The drug is tested on Subdoligranulum variabile strain: DSM15176 for biotransformation. The drug concentrations were measured before and after a 12-h incubation by liquid-chromatography-coupled mass spectrometry (LC–MS). The settings on record: 2 µM.
Data set [13] in a line: The drug is tested on Providencia rettgeri strain: DSM1131 for biotransformation. The drug concentrations were measured before and after a 12-h incubation by liquid-chromatography-coupled mass spectrometry (LC–MS). The data set is classed as ADME. Also on record: dose 2 uM, timepoint 0 vs 12 hours. The settings on record: 2 µM.
Data set [14] in a line: The drug is tested on Providencia stuartii strain: ATCC25827 for biotransformation. The drug concentrations were measured before and after a 12-h incubation by liquid-chromatography-coupled mass spectrometry (LC–MS). The settings on record: 2 µM.
The conditions of data set [15]: bifidobacterium adolescentis, 12 h, 2 µM.
Description: The drug is tested on Bifidobacterium adolescentis strain: ATCC 15703 for biotransformation. The drug concentrations were measured before and after a 12-h incubation by liquid-chromatography-coupled mass spectrometry (LC–MS)
The conditions of data set [16]: bacteroides fragilis, 12 h, 2 µM.
Description: The drug is tested on Bacteroides fragilis strain: NCTC 9343 for biotransformation. The drug concentrations were measured before and after a 12-h incubation by liquid-chromatography-coupled mass spectrometry (LC–MS)
For data set [17] the following is noted: bacteroides fragilis, 12 h, 2 µM. The source holds these as a separate data set.
Description: The drug is tested on Bacteroides fragilis strain: 3397 (T10) for biotransformation. The drug concentrations were measured before and after a 12-h incubation by liquid-chromatography-coupled mass spectrometry (LC–MS)
The conditions of data set [18]: bacteroides fragilis, 12 h, 2 µM. This is another data set of the same source.
Description: The drug is tested on Bacteroides fragilis strain: DS-208 for biotransformation. The drug concentrations were measured before and after a 12-h incubation by liquid-chromatography-coupled mass spectrometry (LC–MS)
For data set [19] the following is noted: bacteroides stercoris, 12 h, 2 µM.
Description: The drug is tested on Bacteroides stercoris strain: ATCC43183 for biotransformation. The drug concentrations were measured before and after a 12-h incubation by liquid-chromatography-coupled mass spectrometry (LC–MS)
For data set [20] the following is noted: anaerostipes sp., 12 h, 2 µM.
Description: The drug is tested on Anaerostipes sp. strain: fecal isolate for biotransformation. The drug concentrations were measured before and after a 12-h incubation by liquid-chromatography-coupled mass spectrometry (LC–MS)

`Cc1cc2c(cc1S(N)(=O)=O)S(=O)(=O)CCC2`: the “Bacterial Biotransformation” value in data set [1], in [2], in data set [3], in [4], in data set [5] and in [6] was “Compound NOT metabolized” in each case. Also, the “Bacterial Biotransformation” value in data set [7], in [8], in [9], in [10], in data set [11] and in data set [12] was “Compound NOT metabolized” in each case. Also, the “Bacterial Biotransformation” value in data set [13], in [14], in data set [15], in data set [16], in data set [17] and in [18] was “Compound NOT metabolized” in each case. The “Bacterial Biotransformation” value in [19] and in [20] was “Compound NOT metabolized” in each case.
In the case of `CN1CCC(OC(c2ccccc2)c2ccccc2)CC1`, the “Bacterial Biotransformation” value in [1], in data set [2], in data set [3], in [4], in data set [5] and in data set [6] was “Compound NOT metabolized” each time. Moreover, the “Bacterial Biotransformation” value in data set [7], in [8], in data set [9], in data set [10], in [11] and in [12] was “Compound NOT metabolized” each time. Also, the “Bacterial Biotransformation” value in [13], in [14], in data set [15], in data set [16], in data set [17] and in [18] was “Compound NOT metabolized” each time. The “Bacterial Biotransformation” value in data set [19] and in [20] was “Compound NOT metabolized” throughout.
For the compound `CCN(CC)C(=O)C1(c2ccccc2)CC1CN` (stereo not drawn), the “Bacterial Biotransformation” value in [1], in data set [2], in data set [3], in data set [4], in data set [5] and in data set [6] was “Compound NOT metabolized” in each case. Further, the “Bacterial Biotransformation” value in data set [7], in data set [8], in data set [9], in [10], in data set [11] and in data set [12] was “Compound NOT metabolized” each time. The “Bacterial Biotransformation” value in data set [13], in [14], in data set [15], in data set [16], in data set [17] and in data set [18] was “Compound NOT metabolized” throughout. The “Bacterial Biotransformation” value in [19] and in [20] was “Compound NOT metabolized” throughout.
In the case of `CC1OC(OC2C(O)CC(OC3C(O)CC(OC4CCC5(C)C(CCC6C5CCC5(C)C(C7=CC(=O)OC7)CCC65O)C4)OC3C)OC2C)CC(O)C1O` (stereo not drawn), the “Bacterial Biotransformation” value in data set [1] is given as “Compound NOT metabolized”; in [2], “Compound metabolized”; in [3], “Compound metabolized”; in [4], “Compound metabolized”; in data set [5] it was “Compound metabolized”; in data set [6], “Compound metabolized”. For the same compound, the “Bacterial Biotransformation” value in data set [7] is on record as “Compound metabolized”; in data set [8], “Compound NOT metabolized”; in [9], “Compound metabolized”; in data set [10] it was “Compound NOT metabolized”; in [11], “Compound NOT metabolized”; in data set [12] it was “Compound NOT metabolized”. The “Bacterial Biotransformation” value in data set [13] was “Compound NOT metabolized”; in data set [14] it was “Compound NOT metabolized”; in data set [15], “Compound NOT metabolized”; in [16], “Compound NOT metabolized”; in data set [17] it was “Compound metabolized”; in [18], “Compound metabolized”. In addition, the “Bacterial Biotransformation” value in data set [19] was “Compound metabolized”; in [20] it was “Compound NOT metabolized”.
For `COC(=O)C1=C(C)NC(C)=C(C(=O)OC(C)C)C1c1cccc2nonc12` (stereo not drawn) [ISRADIPINE], the “Bacterial Biotransformation” value in data set [1], in data set [2], in [3], in [4], in [5] and in [6] was “Compound NOT metabolized” in each case. Moreover, the “Bacterial Biotransformation” value in data set [7], in [9], in data set [10], in data set [11], in data set [12] and in [13] was “Compound NOT metabolized” in each case. For the same compound, the “Bacterial Biotransformation” value in data set [14], in [15], in data set [16], in data set [17], in data set [18] and in [19] was “Compound NOT metabolized” in each case. Moreover, the “Bacterial Biotransformation” value in data set [20] is “Compound NOT metabolized”.
Turning to `COc1ccccc1OCC(O)COC(N)=O` (stereo not drawn) [METHOCARBAMOL], the “Bacterial Biotransformation” value in data set [1], in [2], in [3], in data set [4], in data set [5] and in [6] was “Compound NOT metabolized” each time. Also, the “Bacterial Biotransformation” value in data set [7], in [9], in data set [10], in data set [11], in [12] and in [13] was “Compound NOT metabolized” each time. The “Bacterial Biotransformation” value in [14], in data set [15], in data set [16], in [17], in data set [18] and in [19] was “Compound NOT metabolized” throughout. In addition, in data set [20], the “Bacterial Biotransformation” value is recorded as “Compound NOT metabolized”.
